Patent US20250114335A1, “METHODS AND COMPOSITIONS FOR THE TREATMENT OF EPILEPSY” (ARIZONA BOARD OF REGENTS ON BEHALF OF THE UNIVERSITY OF …, priority 2022, published 2025)
Where “and” joins values, the source holds several entries; their conditions need not be identical. Equal entries are not always repeated.

Test system: B6-D/D (Scn8a-N1768D) juvenile mice
Experiment: Survival and seizure frequency, B6-D/D juvenile mice
Format: in vivo, mouse
Text: Mouse strains: The C57BL/6J-N1768D congenic mouse (B6-D/+) was used for phenotyping, RNAseq, and BBB studies. In addition, a hybrid strain that was produced by backcross breeding to transfer the Scn8a-N1768D allele from the B6 to the C3H/HeJ strain background was used to further assess the effect of CND on survival and seizure frequency. After constructing an F1 by crossing male B6-D/+ heterozygotes to female C3H/HeJ, five rounds of backcrossing (N6) produced a […] and 98.5% C3H/HeJ-N1768D line (C3H-D/+). Sister-brother mating maintained the 98.5% C3H background. […] C3H-D/D mice have a delayed seizure onset (˜40-45 days) and an extended survival (65-70 days) with intermittent bouts of TCs (FIG. 1A).
Phenotyping: Female and male mice on both the B6 and C3H backgrounds were housed in sex-specific groups of 3-4 per cage in a pathogen-free mouse facility with a 14 h light/10 h dark cycle (lights turned on at 5 am). A 24/7 video monitoring system was utilized to collect seizure data, with infrared illumination to monitor behavior during the dark period. Seizures were counted as individual TCs. Adult mice were followed from the age of 6 weeks, a period of time well before seizure onset, in order to identify the day of seizure onset. A seizure bout was defined as a cluster of seizures on consecutive days, and a gap as a seizure-free period of 3 days or more.
Preparation of CND suspension for injections and oral dosing: Juvenile B6-D/D and adult B6-D/+ mice were given subcutaneous (s.c.) injections with either CND (2-4 mg/kg/day; doses that fall within the FDA-approved range for CND in both adults and children) or vehicle (VEH) (Sigma-Aldrich) (FIG. 1B). Oral dosing of adults was performed by thoroughly mixing 160 μl of suspension containing 1.28 mg of CND or VEH with 5 g of pure (organic) peanut butter in a petri dish. Mice were given 1 g pellet per mouse each day. Pellets were weighed each day to record the amount consumed, and 24/7 video was used to verify that each mouse was consuming the pellet. An average of 0.79 g (±0.36 g) was consumed by an adult mouse (˜20-25 g), corresponding to 9.1±4.2 mg/kg/day. No correlations were found for the amount of CND consumed and lifetime survival or number of TCs.
Survival and seizure frequency studies: B6-D/D mice were injected with CND (n=10) or VEH (n=10) at 15 days of age (P15) and followed to monitor TCs by 24/7 video recording until death (FIG. 1B). A separate set of 10 B6-D/D mice was administered a daily s.c. injection of 25 mg/kg/day phenytoin (PHT) suspension or VEH (US Pharmacopeia, Sigma-Aldrich). Oral administration of CND or VEH was initiated at the time of seizure onset (range P75-P85) for adult B6-D/+ females (N=10) and males (N=10) (FIG. 1B). Mice were monitored for seizures by 24/7 video recording until the time of death.

O=C1NC(=O)C(c2ccccc2)(c2ccccc2)N1 [PHT, phenytoin] was tested, and the “survival of juveniles (in words)” value (B6-D/D Juveniles) was “minor increase in survival that did not reach statistical significance”, the “#TCs” value (B6-D/D juveniles, Treated) was 55.9 TCs and the “#TCs/day (Life)” value (B6-D/D juveniles, Treated) was 1.9 TCs/day. The “#TCs/day (PostTC)” value (B6-D/D juveniles, Treated) was 10.2±7.1 TCs/day and 10.2 TCs/day, the “#gaps” value (B6-D/D juveniles, Treated) was 1.2 and the “Age at Onset” value (B6-D/D juveniles, Treated) was 22.2. For the same compound, the “Days with TCs” value (B6-D/D juveniles, Treated) was 6.8 days, the gap days (B6-D/D juveniles, Treated) was 5.2 days and the mean gap length (B6-D/D juveniles, Treated) was 3.5. For the same compound, the “Age at Death” value (B6-D/D juveniles, Treated, daily s.c. injection) was 30.1 ± 5.1 days and 30.1 days.
